According to ChEMBL document CHEMBL6127038, “How many organic small molecules might be used to treat COVID-19? From natural products to synthetic agents” (Eur J Med Chem, 2024):

System: SARS-CoV-2
Assay: Antiviral activity against SARS CoV-2 infected in HEK293 cells overexpressing hACE2 assessed as inhibition of viral infection
Type: functional, organism-based
Conditions: Severe acute respiratory syndrome coronavirus 2, HEK293

With `NC(=O)CC[C@H](NC(=O)[C@H](Cc1ccc(O)cc1)NC(=O)[C@H](Cc1ccccc1)N1CCN(C(=O)[C@H](CC(=O)O)NC(=O)[C@@H](N)CCC(=O)O)CC1=O)C(N)=O` the IC50 was 15 µM.
